Values of other authors as cited in patent US20110308985A1, “COMPOSITION OF A LIPOSOMAL GEL CONTAINING HYDROCORTISONE, ITS METABOLITES, PRECURSORS OR MIXTURES THEREOF AND THE USE THEREOF” (priority 2009, published 2011).

serum peak relative to the physiological morning peak (about 1 hour after intake of a tablet): over 3 times
biological half-life (oral administration form): about 100 minutes
SMILES: C[C@]12CCC(=O)C=C1CC[C@@H]1[C@@H]2[C@@H](O)C[C@@]2(C)[C@H]1CC[C@]2(O)C(=O)CO [hydrocortisone, (11beta)-11,17,21-trihydroxypregn-4-ene-3,20-dione]
